Data on ten molecules can be found in patent US7022711B2, “2-(4-Pyridyl)amino-6-dialkoxyphenyl-pyrido[2,3-d]pyrimidin-7-ones” (Warner-Lambert Company, priority 2000, dated 2006).

The test system of data set [1] is Human umbilical vein endothelial cells (HUVECs). Description: Serum stimulated HUVEC cell proliferation (Sulphorhodamine B). The class given is cell-based. Conditions: for selectivity for serum-stimulated endothelial cell proliferation: HUVEC compared to A90 and C6 tumor cell proliferation. On the procedure:
(§1) Human umbilical vein endothelial cells (HUVECs) (Clonetics, Palo Alto, Calif.) were seeded at 2000 cells per well in growth medium containing 2% serum (EGM, Clonetics) and allowed to attach overnight (37° C., 5% CO2, 100% humidity). C6 rat glioma cells (ATCC) were seeded at 600 cells per well and incubated in F10 medium (GIBCO, Gaithersburg, Md.) supplemented with 15% horse serum, 2.5% fetal bovine serum, and 1 mM glutamine. A90 human ovarian cells (Dr. Kent Crickard, SUNY/AB Medical School) were seeded at 600 cells per well in RPMI1640 (GIBCO) plus 10% fetal bovine serum. Plates were incubated overnight (37° C., 5% CO2, 100% humidity) to allow the cells to attach. Test compound dilutions were added to the appropriate wells, and the incubation was continued for 4 additional days. Monolayers were fixed in 10% trichloroacetic acid (30 minutes at 4° C.), washed with distilled water, and stained with Sulphorhodamine B (0.075% in 1% acetic acid) (Sigma). Plates were washed in 1% acetic acid, and the bound dye was solubilized in 100 μL unbuffered Tris base. Absorbance was measured at 540 nm using a reference filter wavelength of 630 nm. Inhibitor potency (IC50) versus cellular proliferation was determined, and endothelial cell selectivity was assessed by comparing the inhibition of HUVEC proliferation to A90 and C6 tumor cell proliferation (Table 3).

In a further data set the target is T1, VEGFR-2 (Homo sapiens, UniProt P35968).
T1 construct: The kinase domains from FGFR-1, VEGFR-2, Lck, and PDGF were purified from baculoviral vectors expression systems; made in house
Description: Kinase inhibition assay (DELFIA), VEGF-2. Conditions: 40 μM ATP, kinase domain 20 nM. The class given is biochemical. On the procedure: DELFIA plates (EG&G Wallac, Gaithersburg, Md.) were coated overnight with Poly Glu Tyr (4:1) (Sigma, St. Louis, Mo.) at room temperature, washed (DELFIA wash reagent, EG&G Wallac), and spotted with 1 μL inhibitor dilution or DMSO carrier control per well. In some cases, kinase was autophosphorylated prior to analysis by incubating 45 minutes at 4° C. in the presence of 4 mM ATP and 25 mM MgCl2. A typical 100 μL kinase assay reaction contained 20 mM Tris (pH 7.5), 20 mM MgCl2, 50 mM NaCl, 5 mM DTT, and protease inhibitors (Mini EDTA-free protease inhibitor cocktail tablets, Boehringer Mannheim, Indianapolis, Ind.), 40 μM ATP, and an appropriate concentration of inhibitor. The reaction was allowed to continue for 30 minutes at room temperature. Plates were washed, blocked 30 minutes at room temperature (0.5% bovine serum albumin in DELFIA Assay Buffer, EG&G Wallac), and washed. One hundred microliter europium-conjugated antiphosphotyrosine antibody in DELFIA assay buffer was added to each well. Plates were incubated for 1 hour and decanted. […] Compounds were tested from 10 through 0.0001 μM. c-Src was (Upstate Biotechnology, Lake Placid, N.Y.) was used at 3 units per reaction. The kinase domains from FGFR-1, VEGFR-2, Lck, and PDGF were purified from baculoviral vectors expression systems and were used in the assays at 20 nM.

A further data set deals with T2, Lck (Homo sapiens, UniProt P06239).
T2 construct: The kinase domains from FGFR-1, VEGFR-2, Lck, and PDGF were purified from baculoviral vectors expression systems; made in house
Description: Kinase inhibition assay (DELFIA), Lck. Format: biochemical. Conditions: 40 μM ATP, kinase domain 20 nM. On the procedure:
(§2) The inhibition activity of the compounds in Examples 8, 9, 10, 11, and 12 and Reference Compounds A and B were evaluated using the Dissociated Enhanced Lanthanide Fluoroimmuno Assay (DELFIA) (Frank Loganzo and Carolyn Hardy. A sensitive, time-resolved fluorometric assay for the detection of inhibitors of phosphotyrosine kinases. American Biotechnology Laboratory, December 1998). DELFIA plates (EG&G Wallac, Gaithersburg, Md.) were coated overnight with Poly Glu Tyr (4:1) (Sigma, St. Louis, Mo.) at room temperature, washed (DELFIA wash reagent, EG&G Wallac), and spotted with 1 μL inhibitor dilution or DMSO carrier control per well. In some cases, kinase was autophosphorylated prior to analysis by incubating 45 minutes at 4° C. in the presence of 4 mM ATP and 25 mM MgCl2. A typical 100 μL kinase assay reaction contained 20 mM Tris (pH 7.5), 20 mM MgCl2, 50 mM NaCl, 5 mM DTT, and protease inhibitors (Mini EDTA-free protease inhibitor cocktail tablets, Boehringer Mannheim, Indianapolis, Ind.), 40 μM ATP, and an appropriate concentration of inhibitor. The reaction was allowed to continue for 30 minutes at room temperature. Plates were washed, blocked 30 minutes at room temperature (0.5% bovine serum albumin in DELFIA Assay Buffer, EG&G Wallac), and washed. One hundred microliter europium-conjugated antiphosphotyrosine antibody in DELFIA assay buffer was added to each well. Plates were incubated for 1 hour and decanted. One hundred microliter DELFIA enhancement solution (EG&G Wallac) was added and time-resolved fluorescence of the reactions determined using a VICTOR2 1420 multilable counter (EG&G Wallac). Compounds were tested from 10 through 0.0001 μM. c-Src was (Upstate Biotechnology, Lake Placid, N.Y.) was used at 3 units per reaction. The kinase domains from FGFR-1, VEGFR-2, Lck, and PDGF were purified from baculoviral vectors expression systems and were used in the assays at 20 nM.

For the next data set, the target named is T3, FGFR-1 (Homo sapiens, UniProt P11362).
T3 construct: The kinase domains from FGFR-1, VEGFR-2, Lck, and PDGF were purified from baculoviral vectors expression systems; made in house
In words: Kinase inhibition assay (DELFIA), FGFr. Format: biochemical. Conditions: 40 μM ATP, kinase domain 20 nM. On the procedure:
as §2

The next data set addresses T4, c-Src (Homo sapiens, UniProt P12931).
T4 construct: purchased Upstate Biotechnology, Lake Placid, N.Y
In words: Kinase inhibition assay (DELFIA), c-Src. The class given is biochemical. Conditions: 40 μM ATP, c-Src 3 units per reaction. On the procedure:
as §2

In another data set the test system is C6 rat glioma cells. Description: C6 tumor cell proliferation (Sulphorhodamine B). Format: cell-based. Conditions: Rattus norvegicus, Glioma cell, 96 h; 4 days with compound. On the procedure: as §1
The test system of the next data set is A90 human ovarian cells. Description: A90 tumor cell proliferation (Sulphorhodamine B). Format: cell-based. As to conditions: Homo sapiens, 96 h; 4 days with compound. On the procedure: as §1
Data set [2] in a line: Metabolic stability, mice liver S9 fraction. As to conditions: mouse, liver S9 fraction; mice liver S9, 5 μM, 37° C., 1.0 mM NADPH; read-out: MS9 in vitro metabolic half-life. The class given is in vitro ADME. On the procedure:
(§3) Compounds were individually incubated (5 μM in DMSO) with human and mice liver S9 fractions in 50 mM KHPO4 buffer at 37° C. in the presence of 1.0 mM NADPH and additional cofactors. At 0, 10, 20, and 40 minutes, 100 μL aliquots were removed and added to 300 μL of acetonitrile. Standard curves were prepared in a similar manner with each compound. Samples were analyzed for parent concentration by LC-MS/MS. The in vitro metabolic half-life was determined from the concentration-time plots using WinNonlin. These in vitro data represent the rate of oxidative, hydrolytic, and conjugative metabolism.

A short description of a further data set: in vitro. Conditions: human, Caco-2.
Data set [3] is described as follows: Metabolic stability, human liver S9 fraction. Format: in vitro ADME. Conditions: liver S9 fraction; human liver S9, 5 μM, 37° C., 1.0 mM NADPH; read-out: HS9 in vitro metabolic half-life. On the procedure:
as §3

Data set [4] in a line: Caco-2 cell transport (permeability) study. As to conditions: human.
Description: (§4) Cell transport studies were conducted with Caco-2 cells grown on Snapwells™ between 22 and 28 days postseeding. Typically, 10 mM MES buffer (pH 6.5) with 5 mM KCl, 135 mM NaCl, and 1.8 mM CaCl2 was used for the apical side and 10 mM MOPS (pH 7.4) with 5 M KCl, 132 mM NaCl, and 1.8 mM CaCl2 with 5 mM D-glucose was used for the basolateral side. On the day of the experiment, the growth media was aspirated, and the cell monolayers were pre-equilibrated with appropriate buffers at 37° C., and TEER measurements were performed to confirm the integrity of the monolayers. Transepithelial flux measurements were made by mounting the cell monolayers in a side-by-side diffusion chamber system (Precision Instrument Design, Tahoe City, Calif.). Temperature was maintained at 37° C. with a circulating water jacket. The solutions were mixed with gas-lift circulation with 95% oxygen/5% carbon dioxide. […] Donor and receiver samples were collected at selected time intervals for up to 3 hours. […] Test compounds were analyzed using LC-MS/MS methods. Apparent permeability coefficients were calculated using the following equation: Papp=(V·dC/dt)/(A·C0) where V=volume of the receiver solution in mL; A=surface area of the monolayer in cm^2; C0=initial donor concentration in mM; and dC/dt=change of the drug concentration in the receiver chamber over time.

T1 sequence (P35968 834-1162 limits assumed, species assumed): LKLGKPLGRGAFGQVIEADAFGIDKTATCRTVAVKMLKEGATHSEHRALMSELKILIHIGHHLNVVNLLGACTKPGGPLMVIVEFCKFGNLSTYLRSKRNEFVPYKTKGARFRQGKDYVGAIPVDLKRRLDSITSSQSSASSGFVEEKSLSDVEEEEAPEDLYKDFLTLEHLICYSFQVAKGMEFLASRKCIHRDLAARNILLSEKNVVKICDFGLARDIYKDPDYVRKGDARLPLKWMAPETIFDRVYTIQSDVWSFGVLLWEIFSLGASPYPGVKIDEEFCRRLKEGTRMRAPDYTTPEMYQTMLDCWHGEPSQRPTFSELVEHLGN
T3 sequence (P11362 478-767 limits assumed, species assumed): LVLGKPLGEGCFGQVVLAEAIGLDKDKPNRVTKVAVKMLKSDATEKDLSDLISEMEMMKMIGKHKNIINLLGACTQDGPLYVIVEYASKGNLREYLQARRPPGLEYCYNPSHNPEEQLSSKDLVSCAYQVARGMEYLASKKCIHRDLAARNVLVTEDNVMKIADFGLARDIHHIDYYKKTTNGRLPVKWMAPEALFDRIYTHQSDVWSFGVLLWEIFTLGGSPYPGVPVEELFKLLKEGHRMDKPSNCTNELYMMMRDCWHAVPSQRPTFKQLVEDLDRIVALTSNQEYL
T2 sequence (P06239 245-498 limits assumed, species assumed): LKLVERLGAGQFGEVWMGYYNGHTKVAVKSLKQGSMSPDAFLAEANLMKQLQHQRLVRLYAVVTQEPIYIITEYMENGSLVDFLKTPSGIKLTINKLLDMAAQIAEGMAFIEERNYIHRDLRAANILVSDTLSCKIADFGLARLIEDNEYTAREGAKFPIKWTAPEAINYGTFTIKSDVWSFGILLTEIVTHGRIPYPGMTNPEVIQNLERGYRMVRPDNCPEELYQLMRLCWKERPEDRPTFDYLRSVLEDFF
T4 sequence (P12931 whole entry): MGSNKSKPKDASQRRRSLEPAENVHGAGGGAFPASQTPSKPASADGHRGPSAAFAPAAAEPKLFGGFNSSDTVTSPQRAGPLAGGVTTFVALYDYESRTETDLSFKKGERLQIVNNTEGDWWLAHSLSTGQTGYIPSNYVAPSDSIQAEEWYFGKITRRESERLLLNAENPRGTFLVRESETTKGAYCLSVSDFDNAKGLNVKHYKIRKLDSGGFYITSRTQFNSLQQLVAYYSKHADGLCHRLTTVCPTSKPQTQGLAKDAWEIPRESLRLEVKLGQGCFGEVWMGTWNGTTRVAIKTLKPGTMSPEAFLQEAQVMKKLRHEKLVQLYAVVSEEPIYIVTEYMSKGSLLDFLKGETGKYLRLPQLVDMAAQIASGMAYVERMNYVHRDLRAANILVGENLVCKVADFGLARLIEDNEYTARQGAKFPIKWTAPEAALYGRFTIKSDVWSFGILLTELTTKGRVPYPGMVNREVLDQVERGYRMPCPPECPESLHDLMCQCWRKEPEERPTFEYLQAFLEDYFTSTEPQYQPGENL
Description for in vitro: as §4

The molecule `CCn1c(=O)c(-c2cc(OC)cc(OC)c2)cc2cnc(Nc3ccnc(C)c3)nc21` [Example 9, 6-(3,5-Dimethoxy-phenyl)-8-ethyl-2-(2-methyl-pyridin-4-ylamino)-8H-pyrido[2,3-d]pyrimidin-7-one] had a melting point above 300 °C. Moreover, the “selectivity for serum-stimulated endothelial cell proliferation” value (“selectivity” below) in [1] was “selective inhibitors”.

On to `CCn1c(=O)c(-c2cc(OC)cc(OC)c2)cc2cnc(Nc3cc(C)nc(C)c3)nc21` [Example 10, 6-(3,5-Dimethoxy-phenyl)-2-(2,6-dimethyl-pyridin-4-ylamino)-8-ethyl-8H-pyrido[2,3-d]pyrimidin-7-one], for which the IC50 on VEGFR-2 was 0.001 µM; on FGFR-1, 0.0008 µM; against c-Src, above 4 µM. Also, in [1], the “selectivity” value is listed as “selective inhibitors”. At Lck, this molecule returned a Ki of 0.74 µM.

`CCn1c(=O)c(-c2cc(OC)cc(OC)c2)cc2cnc(Nc3ccnc(Cl)c3)nc21` [Example 11, 6-(3,5-Dimethoxy-phenyl)-2-(2-chloro-pyridin-4-ylamino)-8-ethyl-8H-pyrido[2,3-d]pyrimidin-7-one]: the concentration for half-maximal inhibition (IC50) on VEGFR-2 was 0.003 µM; in data set [1] (Homo sapiens, HUVEC, 96 h, 2% serum growth medium, 4 days with compound), 0.013 µM; with C6 rat glioma cells, 9.68 µM; in the data set on A90 human ovarian cells, 25 µM; against FGFR-1 it was 0.0002 µM; against c-Src it was above 4 µM. The “selectivity” value in [1] was “selective inhibitors”. The molecule also had a Ki at Lck of 2.77 µM.

In the case of `CCn1c(=O)c(-c2cc(OC)cc(OC)c2)cc2cnc(Nc3cc(OC)nc(OC)c3)nc21` [Example 12, 6-(3,5-Dimethoxy-phenyl)-2-(2,6-dimethoxy-pyridin-4-ylamino)-8-ethyl-8H-pyrido[2,3-d]pyrimidin-7-one], the “selectivity” value in data set [1] is reported as “selective inhibitors”.

`CCn1c(=O)c(-c2c(Cl)c(OC)cc(OC)c2Cl)cc2cnc(Nc3ccncc3)nc21` [Example 15, 6-(2,6-Dichloro-3,5-dimethoxy-phenyl)-2-(pyridin-4-ylamino)-8-ethyl-8H-pyrido[2,3-d]pyrimidin-7-one] displayed a melting point of 295.5 to 297 °C.

`COc1cc(OC)cc(-c2cc3cnc(Nc4ccncc4)nc3n(C3CCCC3)c2=O)c1` [Example 16, 6-(3,5-Dimethoxy-phenyl)-2-(pyridin-4-ylamino)-8-cyclopentyl-8H-pyrido[2,3-d]pyrimidin-7-one] showed a melting point of 283 to 285 °C.

Molecule `COc1cc(OC)cc(-c2cc3cnc(Nc4ccncc4)nc3n(C)c2=O)c1` [Example 17, 6-(3,5-Dimethoxy-phenyl)-2-(pyridin-4-ylamino)-8-methyl-8H-pyrido[2,3-d]pyrimidin-7-one] showed a melting point of 245 to 247 °C.

With `CCN(CC)CCOc1ccc(Nc2ncc3cc(-c4c(Cl)cccc4Cl)c(=O)n(C)c3n2)cc1` [Reference A], the figures for the half-life at 5 μM in data set [2] and in [3] were 14 min and 46 min, respectively. Further, the Papp A→B in “in vitro” was 37.2 ×10⁻⁶ cm/s.

On to `CCN(CC)CCOc1ccc(Nc2ncc3cc(-c4cc(OC)cc(OC)c4)c(=O)n(C)c3n2)cc1` [Reference B, reference compound], for which the half-life at 5 μM in [2] is 10 min; in [3] it was 22 min. Moreover, the values for the IC50 against VEGFR-2, at FGFR-1 and against c-Src were 0.004 µM, 0.002 µM and 1.34 µM, respectively. At Lck, this molecule displayed an inhibition constant (Ki) of 0.06 µM. In addition, the apparent permeability from apical to basolateral (Papp A→B) in data set [4] was 20.1 ×10⁻⁶ cm/s.

Consider `COCCc1ccc(OCC(O)CNC(C)C)cc1` (stereo not drawn) [metoprolol], for which the apical-to-basolateral permeability (Papp A→B) in [4] was around 30 ×10⁻⁶ cm/s.
